Columns and labels:
[1] = tested on: hypertensive rats; details: cited from earlier work
[2] = molecular target: T1, NEP from human kidney (Homo sapiens, UniProt P08473); test: Assay 2: modified NEP fluorescence assay for potent tight-binding inhibitors; format: biochemical; details: as determined by Assay 2, substrate Abz-D-Arg-Arg-Leu-EDDnp, read-out: IC50 against NEP
T1 construct: Enzyme: NEP from human kidney (prepared using the method of Kenny and Booth); from tissue; host or cells: human kidney
Procedure: Assay 2: This is a modification of Assay 1 which is adapted for potent tight-binding inhibitors.
Buffer: 50 mM Tris pH 7.4
Buffer containing 4% DMSO: 4 ml DMSO added to 96 ml buffer
Enzyme: NEP from human kidney (prepared using the method of Kenny and Booth, Biochem. J. 142, 575, 1974) aliquots stored at −70° C. The NEP activity of each preparation is determined by using serial dilutions of the preparation in this assay without inhibitor, a dilution that achieves 10 to 15% conversion of substrate is used in inhibitor studies.
Inhibitors: Inhibitors are dissolved in DMSO to give a 10 mM solution then further diluted to 1 mM in DMSO. A further dilution is made (40 μl into 960 μl buffer) to give 4×10^−5M inhibitor in buffer containing 4% DMSO. All further dilutions are made in buffer containing 4% DMSO. Inhibitors are assayed utilising an eight point (half log units) dose response curve in duplicate.
Substrate: The substrate (Abz-D-Arg-Arg-Leu-EDDnp, K. M. Carvalho et al. Analytical Biochem 237, 167-173 (1996)) is stored at −70° C. A 2 mM stock is made in buffer and aliquots stored at −70° C. for up to 1 month.
Stop solution: Phosphoramidon (Sigma R7385) 300 nM in buffer. Aliquots of 300 μM solution are stored at −20° C. and diluted 1000 fold in buffer.
Product: Two samples corresponding to 100% conversion of substrate to product are included in the assay to enable the % substrate turnover to be determined. Add 200 μl of 25 μM product and 100 μl stop solution. A stock of this is generated by incubating 1 ml of 25 μM substrate with 20 μl of enzyme stock overnight at 37° C., aliquot and store at −70° C.
Plates: Black Costar 96 well plate Cat# 3915
Fluorescence reader: BMG Fluostar, read at ex320 em420
1. Add 50 μl of inhibitor (4× assay conc)
3. Add 50 μl of enzyme dilution (1:800)
4. Incubate at 37° C. for 1 hour
5. Initiate the reaction by adding 20 μl of substrate
5. Incubate at 37° C. for 3 hours
6. Add 100 μl of stop solution.
7. Read fluorescence using a FLUOstar. (Ex320/Em420
Included in each assay are:
Non enzyme blanks (enzyme replaced with buffer and compound dilution replaced with 4% DMSO buffer)
Controls (compound dilution replaced with 4% DMSO buffer)
Total product (see below)

[3] = tested on: black patients with essential hypertension; details: clinical study of 24 black patients with essential hypertension; cited from earlier work
[4] = tested on: hypertensive patients; details: added to the ACE inhibitor lisinopril; clinical study involving 37 hypertensive patients; cited from earlier work

T1 sequence (P08473 whole entry): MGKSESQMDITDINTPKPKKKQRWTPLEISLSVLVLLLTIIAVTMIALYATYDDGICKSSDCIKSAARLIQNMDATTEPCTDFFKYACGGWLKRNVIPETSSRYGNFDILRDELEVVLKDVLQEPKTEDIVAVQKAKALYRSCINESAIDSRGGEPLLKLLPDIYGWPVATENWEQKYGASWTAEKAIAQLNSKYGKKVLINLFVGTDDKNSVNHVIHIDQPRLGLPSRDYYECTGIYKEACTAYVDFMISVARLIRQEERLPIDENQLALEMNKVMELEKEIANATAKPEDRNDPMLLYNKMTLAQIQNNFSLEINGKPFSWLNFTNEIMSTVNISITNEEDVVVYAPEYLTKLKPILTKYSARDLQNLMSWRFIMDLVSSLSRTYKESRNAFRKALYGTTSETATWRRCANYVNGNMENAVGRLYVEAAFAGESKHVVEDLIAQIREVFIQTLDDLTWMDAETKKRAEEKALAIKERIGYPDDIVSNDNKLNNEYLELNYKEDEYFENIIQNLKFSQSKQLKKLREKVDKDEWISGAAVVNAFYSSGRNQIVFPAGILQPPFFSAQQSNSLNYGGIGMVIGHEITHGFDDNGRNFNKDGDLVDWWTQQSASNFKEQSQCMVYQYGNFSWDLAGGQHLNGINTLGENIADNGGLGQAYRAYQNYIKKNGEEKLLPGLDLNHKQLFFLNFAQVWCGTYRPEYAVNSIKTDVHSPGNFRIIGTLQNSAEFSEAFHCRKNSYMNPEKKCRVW

| Structure (SMILES) | IC50 [2] [nM] | other results |
| --- | --- | --- |
| COCCOC[C@H](CC1(C(=O)N[C@H]2CC[C@@H](C(=O)O)CC2)CCCC1)C(=O)O [candoxatrilat] | – | systolic blood pressure [1]: lowers systolic blood pressure |
| COCC[C@H](CC1(C(=O)N[C@@H](Cc2ncc(-c3ccc(F)cc3)o2)C(=O)O)CCCC1)C(=O)O [Example 26] | 0.3 | – |
| CC1(C)OCC(COC(=O)C(Cc2ccccc2)N[C@@H](Cc2ccccc2)C(=O)NCCC(=O)O)O1 (stereo partly shown) [SCH34826] | – | supine blood pressure [3]: significantly lowered supine blood pressure |
| COCC[C@H](CC1(C(=O)N[C@@H](Cc2ncc(-c3ccc(Cl)cc3)o2)C(=O)O)CCCC1)C(=O)O [Example 30, (2S)-2-(1-{(1S)-1-Carboxy-2-[5-(4-chloro-phenyl)-oxazol-2-yl]-ethylcarbamoyl}-cyclopentylmethyl)-4-methoxy-butyric Acid] | 0.3 | – |
| COCC[C@H](CC1(C(=O)N[C@@H](Cc2ncc(-c3ccccc3)o2)C(=O)O)CCCC1)C(=O)O [Example 40, (2S)-2-{1-[(1S)-1-Carboxy-2-(5-phenyl-oxazol-2-yl)-ethylcarbamoyl]-cyclopentylmethyl}-4-methoxy-butyric Acid] | 0.3 | – |
| CCC[C@H](CC1(C(=O)N[C@@H](Cc2ncc(-c3ccccc3)o2)C(=O)O)CCCC1)C(=O)O [Example 29, (2R)-2-{1-[(1S)-1-Carboxy-2-(5-phenyl-oxazol-2-yl)-ethylcarbamoyl]-cyclopentylmethyl}-pentanoic Acid] | 0.7 | – |
| COCCOC[C@H](CC1(C(=O)N[C@H]2CC[C@@H](C(=O)O)CC2)CCCC1)C(=O)Oc1ccc2c(c1)CCC2 [candoxatril] | – | supine and erect blood pressure [4]: marked reduction in both supine and erect blood pressure |

Source: patent US20040138274A1, “Novel pharmaceuticals” (priority 2002, published 2004)
